The results in this text go back to US8063049B2, “Inhibitors of MEK” (Ardea Biosciences, Inc., priority 2007, dated 2011).

Assay [1] has as its system phosphorylated ERK in MDA-MB-231 breast cancer cells. Kind of assay: Western blotting for phosphorylated ERK in EGF-stimulated MDA-MB-231 cells. The class given is cell-based. To be noted: Homo sapiens, 30 min compound, 100 ng/ml EGF for 5 min, phospho-ERK Western blot. As to the method:
Effects of compounds in the cell can be determined by Western blotting for phosphorylated ERK. MDA-MB-231 breast cancer cells are plated in a 48 well plate at 20,000 cells per well and are grown in a 37° humidified CO2 incubator. The following day, the growth media (DMEM+10% fetal bovine serum) is removed and replaced with starve media (DMEM+0.1% fetal bovine serum). Cells are incubated in the starve media for sixteen hours and then treated with a range of compound concentrations for thirty minutes.
After incubation with compound, cells are stimulated with 100 ng/ml EGF for five minutes. The cells are then lysed and analyzed by Western blot using a monoclonal antibody raised to phosphorylated ERK. The signal is amplified using a secondary antibody conjugated to a near-IR dye and detected on a Licor Odyssey scanner.

In assay [2] the target is T1, Human GST-MEK1CA (constitutively active MEK1, Ser218Asp and Ser222Asp) (Homo sapiens, UniProt Q02750, S218D/S222D).
T1 construct: GST; made in house; host or cells: Escherichia coli
Kind of assay: MEK1 enzymatic activity assay (33P incorporation, MEK1CA/ERK2/MBP). The class given is biochemical. The conditions noted are these: MEK1CA with ERK2, MBP and [γ33P]ATP; 30 min preincubation, 60 min reaction. An excerpt:
Materials and preparation of reagents: Human GST-MEK1 and the constitutively […] active allele GST-MEK1^CA (harboring the mutations Ser218Asp and Ser222Asp) can be subcloned into the yeast expression vector pGEM4Z (Promega, Madison, Wis.) from the wild type human MEK1 cDNA. GST-MEK1CA was expressed in Escherichia coli and can be partially purified using Glutathione Sepharose 4B affinity resin (Amersham Pharmacia Biotech, Piscataway, N.J.). The ERK2 allele can be subcloned from MAPK2/Erk2 cDNA (wild type) in […] pUSEamp (Upstate Biotechnology, Inc., Waltham, Mass.) into the vector pET21a (Novagen, Madison, Wis.) resulting in an N-terminal histidine-tagged mouse ERK2 allele. ERK2 can be expressed and purified to homogeneity [Zhang, 1993 #33]. Myelin basic protein (MBP) can be purchased from Gibco BRL (Rockville, Md.). EasyTides adenosine 5′-triphosphate (ATP) ([γ-33P]) (NEN Perkin Elmer, Wellesley, Mass.) is the source of radiolabel for all kinase reactions. Activated Raf-1 (truncated) and activated MAPKinase 2/ERK2 can be purchased from Upstate, Inc. (Lake Placid, N.Y.). 4-20% Criterion Precast gels can be purchased from Bio-Rad (Hercules, Calif.).
Determination of enzymatic activity: Compounds are diluted from dimethylsulfoxide (DMSO) stocks into 1×HMNDE (20 mM HEPES pH 7.2, 1 mM MgCl2, 100 mM NaCl, 1.25 mM DTT, 0.2 mM EDTA). A typical 25-microliter assay contained 0.002 nanomoles MEK1^CA, 0.02 nanomoles ERK2, 0.25 nanomoles MBP, 0.25 nanomoles unlabeled ATP, and 0.1 μCi [γ33P] ATP. The screening assay essentially comprises four additions. Five μl of diluted compound are dispensed to 96-well assay plates. Ten μl of 2.5× enzyme cocktail (MEK1^CA and ERK2 only) are then added to each well followed by a preincubation for 30 minutes at ambient temperature. Ten μl of 2.5× substrate cocktail (labeled and unlabeled ATP plus MBP) are then added, followed by incubation for 60 minutes at ambient temperature. Finally, 100 μl of 10% trichloroacetic acid (TCA) are added and incubated for 30 minutes at room temperature to halt the reaction and precipitate radiolabeled protein products. Reaction products are harvested on glass fiber 96 well filter plates prewetted with water and 1% pyrophosphate. The filter plate is then washed 5 times with water. Water is displaced by absolute ethanol and the plate is allowed to air dry for 30 minutes at room temperature. A back seal is applied manually and 40 μl of scintillation cocktail are dispensed to each well. A top seal is applied and the plate is counted in the TopCount for two seconds per well.

T1 sequence (Q02750 whole entry S218D/S222D): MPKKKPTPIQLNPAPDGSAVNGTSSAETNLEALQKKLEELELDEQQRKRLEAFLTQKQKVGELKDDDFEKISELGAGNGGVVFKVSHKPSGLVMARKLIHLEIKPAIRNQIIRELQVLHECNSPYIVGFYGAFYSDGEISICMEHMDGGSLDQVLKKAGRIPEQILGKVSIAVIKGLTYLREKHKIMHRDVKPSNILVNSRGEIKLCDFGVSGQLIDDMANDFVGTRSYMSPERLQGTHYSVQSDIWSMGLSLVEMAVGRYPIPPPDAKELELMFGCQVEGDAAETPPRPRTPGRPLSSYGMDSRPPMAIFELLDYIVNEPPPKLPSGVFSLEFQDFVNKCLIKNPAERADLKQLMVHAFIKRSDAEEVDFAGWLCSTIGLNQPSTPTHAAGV

In assay [1], `Cc1c(Nc2ccc(I)cc2F)c(NS(=O)(=O)C2CC2)cn2ccnc12` [Example 14, N-(7-(2-fluoro-4-iodophenylamino)-8-methylimidazo[1,2-a]pyridin-6-yl)cyclopropanesulfonamide] showed an EC50 of 0.0001 to 0.001 µM. The IC50 in assay [2] is 0.01 to 0.1 µM.

The compound `Cc1nn(C)c2c(F)c(Nc3ccc(I)cc3F)c(NS(=O)(=O)C3CC3)cc12` [Example 30, N-(6-(2-fluoro-4-iodophenylamino)-7-fluoro-1,3-dimethyl-1H-indazol-5-yl)cyclopropanesulfonamide] had an EC50 in assay [1] of 0.1 to 1 µM. In assay [2], this compound returned an IC50 of 10 to 50 µM.

Regarding `Cc1c(Nc2ccc(Br)cc2Cl)c(NS(=O)(=O)C2CC2)cn2ccnc12` [Example 17, N-(7-(4-bromo-2-chlorophenylamino)-8-methylimidazo[1,2-a]pyridin-6-yl)cyclopropanesulfonamide], the concentration for a half-maximal effect (EC50) in assay [1] fell in the range of 0.01 to 0.1 µM. In assay [2], the half-maximal inhibitory concentration (IC50) was 0.1 to 1 µM.

Consider `O=S(=O)(Nc1cn2ccnc2c(Cl)c1Nc1ccc(Br)cc1Cl)C1(CCO)CC1` [Example 10, N-(7-(4-bromo-2-chlorophenylamino)-8-chloroimidazo[1,2-a]pyridin-6-yl)-1-(2-hydroxyethyl)cyclopropane-1-sulfonamide], for which the EC50 in assay [1] fell in the range of 0.01 to 0.1 µM. The concentration for half-maximal inhibition (IC50) in assay [2] is 0.1 to 1 µM.

Compound `Cc1c(Nc2ccc(Br)cc2Cl)c(NS(=O)(=O)C2(CCO)CC2)cn2ccnc12` [Example 18, N-(7-(4-bromo-2-chlorophenylamino)-8-methylimidazo[1,2-a]pyridin-6-yl)-1-(2-hydroxyethyl)cyclopropane-1-sulfonamide] yielded an EC50 in assay [1] of 0.01 to 0.1 µM. The same compound had an IC50 in assay [2] of 1 to 10 µM.

`Cc1c(Nc2ccc(I)cc2F)c(NS(=O)(=O)C2(CC(O)CO)CC2)cn2ccnc12` (centres unmarked) [Example 16, 1-(2,3-dihydroxypropyl)-N-(7-(2-fluoro-4-iodophenylamino)-8-methylimidazo[1,2-a]pyridin-6-yl)cyclopropane-1-sulfonamide] registered an EC50 in assay [1] of 0.01 to 0.1 µM. The same compound yielded an IC50 in assay [2] of 0.01 to 0.1 µM.

Take `O=S(=O)(Nc1cn2ccnc2c(Cl)c1Nc1ccc(Br)cc1Cl)C1CC1` [Example 9, N-(7-(4-bromo-2-chlorophenylamino)-8-chloroimidazo[1,2-a]pyridin-6-yl)cyclopropanesulfonamide]: the EC50 in assay [1] was in the range of 0.01 to 0.1 µM. Also, the IC50 in assay [2] was 0.1 to 1 µM.

`Cc1noc2c(F)c(Nc3ccc(Br)cc3Cl)c(NS(=O)(=O)C3CC3)cc12` [Example 6, N-(7-fluoro-6-(4-bromo-2-chlorophenylamino)-3-methylbenzo[d]isoxazol-5-yl)cyclopropanesulfonamide] had an EC50 in assay [1] of 0.001 to 0.01 µM. Besides, the IC50 in assay [2] fell in the range of 0.1 to 1 µM.

In the case of `Cn1cnc2c(F)c(Nc3ccc(I)cc3F)c(NS(=O)(=O)C3(CCO)CC3)cc21` [Example 2, N-(4-fluoro-5-(2-fluoro-4-iodophenylamino)-1-methyl-1H-benzo[d]imidazol-6-yl)-1-(2-hydroxyethyl)cyclopropane-1-sulfonamide], the EC50 in assay [1] was in the range of 0.001 to 0.01 µM. Also, the IC50 in assay [2] was 0.01 to 0.1 µM.

In assay [1], `Cc1noc2c(F)c(Nc3ccc(I)cc3F)c(NS(=O)(=O)C3(CCO)CC3)cc12` [Example 4, 1-(2-hydroxyethyl)-N-(7-fluoro-6-(2-fluoro-4-iodophenylamino)-3-methylbenzo[d]isoxazol-5-yl)cyclopropane-1-sulfonamide] gave an EC50 of 0.001 to 0.01 µM. Moreover, the half-inhibitory concentration (IC50) in assay [2] was in the range of 0.01 to 0.1 µM.

Take `Cc1ncnc2c(F)c(Nc3ccc(I)cc3F)c(NS(=O)(=O)C3CC3)cc12` [Example 34, N-(7-(2-fluoro-4-iodophenylamino)-8-fluoro-4-methylquinazolin-6-yl)cyclopropanesulfonamide]: in assay [1], the EC50 is 0.1 to 1 µM. The compound further showed an IC50 in assay [2] of 10 to 50 µM.

As for `O=S(=O)(Nc1cn2ccnc2c(Cl)c1Nc1ccc(I)cc1F)C1(CCO)CC1` [Example 12, N-(8-chloro-7-(2-fluoro-4-iodophenylamino)imidazo[1,2-a]pyridin-6-yl)-1-(2-hydroxyethyl)cyclopropane-1-sulfonamide], the EC50 in assay [1] was in the range of 0.001 to 0.01 µM. Moreover, the IC50 in assay [2] lay within 0.01 to 0.1 µM.

In assay [1], `Cc1noc2c(F)c(Nc3ccc(I)cc3F)c(NS(=O)(=O)C3(CC(O)CO)CC3)cc12` (centres unmarked) [Example 5, 1-(2,3-dihydroxypropyl)-N-(7-fluoro-6-(2-fluoro-4-iodophenylamino)-3-methylbenzo[d]isoxazol-5-yl)cyclopropane-1-sulfonamide] yielded a concentration giving a half-maximal response (EC50) of 0.0001 to 0.001 µM. The compound also came in with an IC50 in assay [2] of 0.001 to 0.01 µM.

On to `Cc1noc2c(F)c(Nc3ccc(I)cc3F)c(NS(=O)(=O)C3CC3)cc12` [Example 3, N-(7-fluoro-6-(2-fluoro-4-iodophenylamino)-3-methylbenzo[d]isoxazol-5-yl)cyclopropanesulfonamide], for which the EC50 in assay [1] lay in the range of 0.001 to 0.01 µM. The half-inhibitory concentration (IC50) in assay [2] was 0.01 to 0.1 µM.

Compound `Cc1onc2c(F)c(Nc3ccc(I)cc3F)c(NS(=O)(=O)C3CC3)cc12` [Example 7, N-(7-fluoro-6-(2-fluoro-4-iodophenylamino)-3-methylbenzo[c]isoxazol-5-yl)cyclopropanesulfonamide] displayed an EC50 in assay [1] of 0.01 to 0.1 µM. The compound also gave an IC50 in assay [2] of 0.01 to 0.1 µM.

Take `Cc1c2cc(NS(=O)(=O)C3CC3)c(Nc3ccc(I)cc3F)c(F)c2nn1C` [Example 29, N-(6-(2-fluoro-4-iodophenylamino)-7-fluoro-2,3-dimethyl-2H-indazol-5-yl)cyclopropanesulfonamide]: the EC50 in assay [1] is 0.001 to 0.01 µM. This compound also yielded an IC50 in assay [2] of 1 to 10 µM.
